Experimental data reported in PubChem BioAssay (NCI).
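Where inhibition never reached the appropriate level, the endpoint shown equals the highest concentration tested. Otherwise, values were interpolated linearly from a five-concentration, 48-hour dose response in 96-well plates. At the GI50, growth is halved. TGI denotes the concentration required for complete inhibition of growth.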

Key:
Experiment in all cases: DTP human tumour cell line panel, 48 h; in the data active = GI50 below about 0.43 µM; inactive = the rest
[1] = test system: SW-620 colon
[2] = test system: M14 melanoma
[3] = test system: SN12C renal
[4] = test system: U251 CNS
[5] = test system: T-47D breast
[6] = test system: IGROV1 ovarian
[7] = test system: SF-295 CNS
[8] = test system: NCI-H460 lung
[9] = test system: SK-MEL-2 melanoma
[10] = test system: NCI-H522 lung
[11] = test system: HOP-62 NSCLC
[12] = test system: MDA-MB-435
[13] = test system: EKVX NSCLC
[14] = test system: HOP-92 NSCLC
[15] = test system: HT29 colon
[16] = test system: UACC-257 melanoma
[17] = test system: HCT-15 colon
[18] = test system: SK-MEL-5 melanoma
[19] = test system: LOX IMVI melanoma
[20] = test system: SF-539 CNS
[21] = test system: NCI-H226 lung
[22] = test system: CAKI-1 renal
[23] = test system: UO-31 renal
[24] = test system: HCC-2998 colon
[25] = test system: KM12 colon
[26] = test system: OVCAR-8 ovarian
[27] = test system: HCT-116 colon
[28] = test system: BT-549 breast
[29] = test system: 786-0 renal
[30] = test system: ACHN renal
[31] = test system: K-562 leukemia
[32] = test system: OVCAR-5 ovarian
[33] = test system: UACC-62 melanoma
[34] = test system: SK-MEL-28 melanoma
[35] = test system: MALME-3M melanoma
[36] = test system: CCRF-CEM leukemia
[37] = test system: SNB-19 CNS
[38] = test system: MOLT-4 leukemia
[39] = test system: TK-10 renal
[40] = test system: SF-268 CNS
[41] = test system: A549 NSCLC
[42] = test system: SR leukemia
[43] = test system: OVCAR-3 ovarian
[44] = test system: RPMI-8226 leukemia
[45] = test system: PC-3 prostate
[46] = test system: MCF7 breast
[47] = test system: NCI-H23 lung
[48] = test system: SK-OV-3 ovarian
[49] = test system: DU-145 prostate
[50] = test system: HS 578T breast
[51] = test system: RXF 393 renal
[52] = test system: SNB-75 CNS
[53] = test system: MDA-MB-231 breast
[54] = test system: NCI/ADR-RES ovarian
[55] = test system: COLO 205 colon
[56] = test system: OVCAR-4 ovarian
[57] = test system: HL-60(TB) leukemia

O=C(CN1CCN(c2cc3c(cc2F)c(=O)c(C(=O)O)cn3C2CC2)CC1)Nc1nc(-c2ccc(Cl)cc2)cs1
61 µM: TGI [53]
16.7 µM: TGI [1]
60.3 µM: TGI [28]
53.1 µM: TGI [42]
29.9 µM: TGI [45]
19 µM: TGI [19]
> 100 µM: TGI [3] | TGI [4] | TGI [5] | TGI [6] | TGI [11] | TGI [13] | TGI [20] | TGI [21] | TGI [22] | TGI [23] | TGI [24] | TGI [25] | TGI [26] | TGI [27] | TGI [29] | TGI [30] | TGI [31] | TGI [32] | TGI [33] | TGI [36] | TGI [37] | TGI [38] | TGI [39] | TGI [40] | TGI [41] | TGI [44] | TGI [47] | TGI [51] | TGI [52] | TGI [54] | TGI [55]
28.6 µM: TGI [2]
98.8 µM: TGI [56]
29.4 µM: TGI [15]
28.4 µM: TGI [49]
36.1 µM: TGI [46]
22.2 µM: TGI [16]
23.7 µM: TGI [17]
8.05 µM: TGI [18]
11.1 µM: TGI [35]
inactive: GI50 [1] 3.48 µM | GI50 [2] 4.54 µM | GI50 [3] 3.69 µM | GI50 [4] 3.74 µM | GI50 [5] 3.58 µM | GI50 [6] 7.91 µM | GI50 [7] 2.77 µM | GI50 [8] 3.03 µM | GI50 [9] 3.12 µM | GI50 [10] 3.15 µM | GI50 [11] 4.16 µM | GI50 [12] 3.85 µM | GI50 [13] 4.45 µM | GI50 [14] 2.73 µM | GI50 [15] 3.43 µM | GI50 [16] 3.94 µM | GI50 [17] 3.23 µM | GI50 [18] 2.76 µM | GI50 [19] 3.39 µM | GI50 [20] 3.93 µM | GI50 [21] 5 µM | GI50 [22] 3.57 µM | GI50 [23] 2.96 µM | GI50 [24] 5.17 µM | GI50 [25] 3.69 µM | GI50 [26] 3.26 µM | GI50 [27] 3.37 µM | GI50 [28] 3.85 µM | GI50 [29] 4.24 µM | GI50 [30] 3.05 µM | GI50 [31] 2.95 µM | GI50 [32] 8.66 µM | GI50 [33] 3.66 µM | GI50 [34] 3.02 µM | GI50 [35] 3.19 µM | GI50 [36] 4.39 µM | GI50 [37] 4.71 µM | GI50 [38] 3.31 µM | GI50 [39] 4.28 µM | GI50 [40] 4.19 µM | GI50 [41] 3.75 µM | GI50 [42] 3.58 µM | GI50 [43] 3.51 µM | GI50 [44] 3.21 µM | GI50 [45] 3.36 µM | GI50 [46] 3.06 µM | GI50 [47] 3.1 µM | GI50 [48] 3.24 µM | GI50 [49] 4.03 µM | GI50 [50] 7.19 µM | GI50 [51] 4.72 µM | GI50 [52] 3.71 µM | GI50 [53] 5.09 µM | GI50 [54] 5.62 µM | GI50 [55] 4.82 µM | GI50 [56] 6.64 µM | GI50 [57] 2.71 µM
7.91 µM: TGI [14]
94 µM: TGI [12]
17.3 µM: TGI [43]
19.1 µM: TGI [48]
45.8 µM: TGI [34]
29.6 µM: TGI [7]
30.4 µM: TGI [10]
6.29 µM: TGI [57]
12.7 µM: TGI [8]
73.7 µM: TGI [50]
21 µM: TGI [9]
